Assay [1] relates to MDA-MB-231. Nature of the assay: Antitumor activity against human MDA-MB-231 cells. The class given is functional, cell-based.
In assay [2] the test system is K562. Nature of the assay: Antitumor activity against human K562 cells. In kind it is functional, cell-based.
A further assay relates to HL-60. Nature of the assay: Antitumor activity against human HL60 cells. In kind it is functional, cell-based.
For assay [3], the system named is HUVEC. Put plainly: Inhibition of bFGF-induced cell proliferation in HUVEC by MTT assay. The settings on record: Homo sapiens. In kind it is functional, cell-based.
The subject of assay [4] is IM-9. Put plainly: Antitumor activity against human IM9 cells. The class given is functional, cell-based.
Assay [5] relates to A549. Nature of the assay: Antitumor activity against human A549 cells. In kind it is functional, cell-based.
Assay [6] concerns HUVEC. Put plainly: Inhibition of VEGF-induced cell proliferation in HUVEC by MTT assay. The class given is functional, cell-based. The settings on record: Homo sapiens.
Assay [7] relates to K562. Nature of the assay: Ratio of Sunitinib IC50 to compound IC50 for human K562 cells. In kind it is functional.
Assay [8] has as its system A549. Nature of the assay: Ratio of Sunitinib IC50 to compound IC50 for human A549 cells. The class given is functional.
The subject of assay [9] is IM-9. Put plainly: Ratio of Sunitinib IC50 to compound IC50 for human IM9 cells. The class given is functional.
Assay [10] relates to MDA-MB-231. Put plainly: Ratio of Sunitinib IC50 to compound IC50 for human MDA-MB-231 cells. The class given is functional.

The structures appear in SMILES notation.

On to `Cc1[nH]c(/C=C2\C(=O)N(CCCN(C)C)c3ccc(F)cc32)c(C)c1C(=O)NCCN(C)C`, for which the concentration for half-maximal inhibition (IC50) with MDA-MB-231 [1] was 2.14 µM; in the assay on K562 [2] it was 1.46 µM; in the assay with HL-60 it was 2.73 µM; in the assay with HUVEC [3], 1.42 µM; in the assay on IM-9 [4], 1.36 µM; with A549 [5], 2.94 µM. This compound also gave an IC50 with HUVEC [6] of 0.48 µM.
Regarding `CCN(CC)C(=O)c1c(C)[nH]c(/C=C2\C(=O)N(CCCN(C)C)c3ccc(F)cc32)c1C`, the concentration for half-maximal inhibition (IC50) with MDA-MB-231 [1] amounted to 13.7 µM; with K562 [2], 4.88 µM; in the assay with HL-60, 10.7 µM; in the assay on HUVEC [3], 10.5 µM; in the assay on IM-9 [4], 14.1 µM; in the assay on A549 [5] it was 29.9 µM. Further, the 50% inhibitory concentration (IC50) in the assay with HUVEC [6] was 3.96 µM.
`Cc1[nH]c(/C=C2\C(=O)N(CCCN(C)C)c3ccc(Cl)cc32)c(C)c1C(=O)N1CCCC1`: the IC50 with MDA-MB-231 [1] worked out at 11.5 µM; with K562 [2], 6.58 µM; in the assay with HL-60, 7.82 µM; in the assay on HUVEC [3], 4.65 µM; in the assay on IM-9 [4] it was 9.36 µM; with A549 [5] it was 14 µM. The compound further displayed an IC50 with HUVEC [6] of 3.92 µM.
Turning to `CCN(CC)CCNC(=O)c1c(C)[nH]c(/C=C2\C(=O)N(CCCN(C)C)c3ccc(F)cc32)c1C`, the half-maximal inhibitory concentration (IC50) was 2.86 µM in the assay with MDA-MB-231 [1]; 1.33 µM in the assay with K562 [2]; 1.82 µM with HL-60; 1.68 µM in the assay with HUVEC [3]; 1.63 µM in the assay with IM-9 [4]; 5.08 µM in the assay with A549 [5]. This compound came in with an IC50 with HUVEC [6] of 0.71 µM.
For the compound `CCN(CC)CCNC(=O)c1c(C)[nH]c(/C=C2\C(=O)N(CCCN(C)C)c3ccc(Cl)cc32)c1C.Cl.Cl.Cl`, the Ratio IC50 stood at 4.6 in the assay with K562 [7], 2.1 in the assay on A549 [8], 2.1 in the assay with IM-9 [9] and 2.1 in the assay with MDA-MB-231 [10]. Also, the half-inhibitory concentration (IC50) was determined as 2.29 µM in the assay with MDA-MB-231 [1]; 0.52 µM with K562 [2]; 1.07 µM with HL-60; 3.08 µM with HUVEC [3]; 0.47 µM with IM-9 [4]; 3.11 µM in the assay with A549 [5]. In the assay on HUVEC [6], the half-maximal inhibitory concentration (IC50) was 2.72 µM.
`Cc1[nH]c(/C=C2\C(=O)N(CCCN(C)C)c3ccc(Cl)cc32)c(C)c1C(=O)NCCN(C)C`: the concentration for half-maximal inhibition (IC50) amounted to 2.44 µM with MDA-MB-231 [1]; 0.53 µM in the assay on K562 [2]; 1.17 µM with HL-60; 3.36 µM in the assay with HUVEC [3]; 0.45 µM with IM-9 [4]; 3.52 µM in the assay with A549 [5]. The same compound showed an IC50 in the assay with HUVEC [6] of 1.11 µM.
On to `Cc1[nH]c(/C=C2\C(=O)N(CCCN(C)C)c3ccc(Cl)cc32)c(C)c1C(=O)N(C)C`, for which the IC50 in the assay with MDA-MB-231 [1] is 12 µM; in the assay on K562 [2], 6.74 µM; in the assay with HL-60 it was 7.3 µM; in the assay on HUVEC [3], 8.27 µM; with IM-9 [4], 9.42 µM; in the assay on A549 [5], 16 µM. Besides, the IC50 in the assay with HUVEC [6] stood at 1.62 µM.
`Cc1[nH]c(/C=C2\C(=O)N(CCCN(C)C)c3ccc(Cl)cc32)c(C)c1C(=O)N1CCN(C)CC1`: the concentration for half-maximal inhibition (IC50) with MDA-MB-231 [1] worked out at 5.06 µM; in the assay on K562 [2] it was 1.41 µM; in the assay on HL-60, 3.56 µM; in the assay with HUVEC [3], 2 µM; in the assay on IM-9 [4], 1.47 µM; with A549 [5], 6.78 µM. Also, in the assay on HUVEC [6], inhibition was half-maximal at 1.34 µM (IC50).
As for `Cc1[nH]c(/C=C2\C(=O)N(CCCN(C)C)c3ccc(F)cc32)c(C)c1C(=O)N1CCCC1`, the 50% inhibitory concentration (IC50) in the assay with MDA-MB-231 [1] is 13.3 µM; in the assay with K562 [2], 11.6 µM; with HL-60, 11.9 µM; in the assay on HUVEC [3], 11.3 µM; with IM-9 [4] it was 19.1 µM; with A549 [5] it was 21.2 µM. Moreover, the 50% inhibitory concentration (IC50) in the assay with HUVEC [6] amounted to 6.56 µM.
In the case of `Cc1[nH]c(/C=C2\C(=O)N(CCCN(C)C)c3ccc(F)cc32)c(C)c1C(=O)N1CCCCC1`, the IC50 in the assay with MDA-MB-231 [1] is 11.5 µM; with K562 [2], 4.09 µM; in the assay on HL-60, 4.39 µM; in the assay on HUVEC [3], 5.27 µM; in the assay on IM-9 [4] it was 4.83 µM; with A549 [5] it was 18.7 µM. This compound displayed a concentration for half-maximal inhibition (IC50) with HUVEC [6] of 4.06 µM.
As for `CCN1CCN(C(=O)c2c(C)[nH]c(/C=C3\C(=O)N(CCCN(C)C)c4ccc(Cl)cc43)c2C)CC1`, the half-inhibitory concentration (IC50) with MDA-MB-231 [1] came to 3.46 µM; with K562 [2], 2.45 µM; in the assay on HL-60, 2.62 µM; in the assay on HUVEC [3], 1.77 µM; in the assay on IM-9 [4] it was 2.25 µM; with A549 [5], 8.88 µM. The compound further returned an IC50 with HUVEC [6] of 1.02 µM.
`Cc1[nH]c(/C=C2\C(=O)N(CCCN(C)C)c3ccc(F)cc32)c(C)c1C(=O)N(C)C`: the IC50 was 19.2 µM with MDA-MB-231 [1]; 13.6 µM in the assay with K562 [2]; 14.8 µM in the assay with HL-60; 19.9 µM with HUVEC [3]; 17.9 µM in the assay with IM-9 [4]; 25.2 µM in the assay on A549 [5]. Half-maximal inhibition with HUVEC [6] (IC50) required 5.23 µM.
For `CCN(CC)C(=O)c1c(C)[nH]c(/C=C2\C(=O)N(CCCN(C)C)c3ccc(Cl)cc32)c1C`, the half-maximal inhibitory concentration (IC50) in the assay on MDA-MB-231 [1] came out at 6.82 µM; in the assay with K562 [2] it was 2.07 µM; with HL-60, 4.02 µM; in the assay on HUVEC [3], 4.87 µM; in the assay with IM-9 [4] it was 6.28 µM; with A549 [5], 13.1 µM. This compound also came in with a half-maximal inhibitory concentration (IC50) in the assay with HUVEC [6] of 2.9 µM.
In the case of `CCN1CCN(C(=O)c2c(C)[nH]c(/C=C3\C(=O)N(CCCN(C)C)c4ccc(F)cc43)c2C)CC1`, the concentration for half-maximal inhibition (IC50) worked out at 8.09 µM in the assay with MDA-MB-231 [1]; 5.98 µM in the assay on K562 [2]; 13.4 µM with HL-60; 3.38 µM in the assay with HUVEC [3]; 7.26 µM in the assay on IM-9 [4]; 13.7 µM in the assay with A549 [5]. This compound displayed a half-maximal inhibitory concentration (IC50) in the assay with HUVEC [6] of 1.58 µM.
Consider `Cc1[nH]c(/C=C2\C(=O)N(CCCN(C)C)c3ccc(Cl)cc32)c(C)c1C(=O)N1CCCCC1`, for which the 50% inhibitory concentration (IC50) in the assay on MDA-MB-231 [1] was determined as 5.68 µM; with K562 [2], 2.14 µM; in the assay with HL-60, 3.99 µM; in the assay with HUVEC [3], 2.04 µM; in the assay on IM-9 [4] it was 4.49 µM; with A549 [5] it was 7.33 µM. This compound gave an IC50 in the assay on HUVEC [6] of 1.31 µM.
On to `CCN(CC)CCNC(=O)c1c(C)[nH]c(/C=C2\C(=O)Nc3ccc(F)cc32)c1C` [SUNITINIB], for which the IC50 is 4.51 µM with MDA-MB-231 [1]; 2.41 µM with K562 [2]; 3.53 µM with HL-60; 4.04 µM with HUVEC [3]; 1.35 µM with IM-9 [4]; 6.61 µM in the assay on A549 [5]. Moreover, the IC50 in the assay with HUVEC [6] stood at 2.75 µM.
As for `Cc1[nH]c(/C=C2\C(=O)N(CCCN(C)C)c3ccc(F)cc32)c(C)c1C(=O)N1CCN(C)CC1`, the IC50 stood at 9 µM with MDA-MB-231 [1]; 5.27 µM in the assay on K562 [2]; 7.59 µM with HL-60; 5.64 µM in the assay on HUVEC [3]; 4.06 µM with IM-9 [4]; 11.1 µM with A549 [5]. Also, inhibition with HUVEC [6] was half-maximal at 2.99 µM (IC50).

These data come from ChEMBL document CHEMBL1781941, “Synthesis and antitumor activity of 5-[1-(3-(dimethylamino)propyl)-5-halogenated-2-oxoindolin-(3Z)-ylidenemethyl]-2,4-dimethyl-1H-pyrrole-3-carboxamides” (Bioorg Med Chem Lett, 2011).
